Data: ChEMBL document CHEMBL5352437, “Identification and immunological evaluation of novel TLR2 agonists through structural optimization of Diprovocim” (Eur J Med Chem, 2022)
Activity calls are given as the source filed them. The rule behind the calls is not given here.

Columns and labels:
Toll-like receptor 2 [1] = biological target: T1, Toll-like receptor 2 (Homo sapiens, UniProt O60603); assay: Agonist activity at human TLR2 expressed in HEK-Blue hTLR2 cells as SEAP expression incubated for 16 hrs by SEAP-based plate reader analysis; format: cell-based
T1 sequence (O60603 whole entry): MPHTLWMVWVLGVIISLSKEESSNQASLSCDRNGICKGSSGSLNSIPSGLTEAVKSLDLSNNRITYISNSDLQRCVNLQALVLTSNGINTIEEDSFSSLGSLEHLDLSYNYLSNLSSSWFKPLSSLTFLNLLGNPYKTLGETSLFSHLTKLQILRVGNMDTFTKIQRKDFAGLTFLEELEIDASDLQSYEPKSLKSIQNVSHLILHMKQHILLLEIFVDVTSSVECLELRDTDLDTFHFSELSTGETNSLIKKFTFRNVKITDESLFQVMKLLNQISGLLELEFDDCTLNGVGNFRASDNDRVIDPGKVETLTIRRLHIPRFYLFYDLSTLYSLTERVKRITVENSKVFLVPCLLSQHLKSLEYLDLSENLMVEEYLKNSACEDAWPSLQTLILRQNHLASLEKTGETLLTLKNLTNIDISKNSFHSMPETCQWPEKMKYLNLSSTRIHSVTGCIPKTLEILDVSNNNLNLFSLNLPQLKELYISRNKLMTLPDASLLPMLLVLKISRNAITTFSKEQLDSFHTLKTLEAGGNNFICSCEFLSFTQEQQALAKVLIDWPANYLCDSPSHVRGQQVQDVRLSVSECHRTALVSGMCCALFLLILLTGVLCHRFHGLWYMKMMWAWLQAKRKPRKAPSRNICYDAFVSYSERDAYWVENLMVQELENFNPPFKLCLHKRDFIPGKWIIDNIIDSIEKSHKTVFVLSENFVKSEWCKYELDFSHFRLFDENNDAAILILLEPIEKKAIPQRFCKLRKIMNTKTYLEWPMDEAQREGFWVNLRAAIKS

THP-1 [2] = assay: Cytotoxicity against human THP1 cells assessed as reduction in cell viability at 100 uM incubated for 24 hrs by CCK8 assay; format: toxicity, cell-based; conditions: thp-1, 24 h
[3] = Cytotoxicity against human HEK-Blue hTLR2 cells assessed as reduction in cell viability at 100 uM incubated for 24 hrs by CCK8 assay; format: toxicity, cell-based; conditions: hek-blue htlr2, 24 h
Toll-like receptor 2 [4] = biological target: T1, Toll-like receptor 2; assay: Agonist activity at human TLR2 expressed in HEK-Blue hTLR2 cells assessed as activation of TLR2-triggered SEAP signaling up to 10 uM incubated for 16 hrs by SEAP-based plate reader analysis; format: cell-based; conditions: filed as agonist
Toll-like receptor 2 [5] = biological target: T1, Toll-like receptor 2; assay: Agonist activity at human TLR2 expressed in HEK-Blue hTLR2 cells assessed as activation of TLR2-triggered SEAP signaling at 0.1 uM incubated for 16 hrs in presence of anti-hTLR1 by SEAP-based plate reader analysis; format: cell-based
Toll-like receptor 2 [6] = biological target: T1, Toll-like receptor 2; assay: Agonist activity at human TLR2 expressed in HEK-Blue hTLR2 cells assessed as activation of TLR2-triggered SEAP signaling at 0.1 uM incubated for 16 hrs in presence of anti-hTLR2 by SEAP-based plate reader analysis; format: cell-based
THP-1 [7] = assay: Upregulation of MyD88 protein expression in human PMA-differentiated THP-1 cells at 100 nM by Western blotting analysis; format: functional, cell-based; conditions: time 0-120 min, TDE = time-dependent effect
THP-1 [8] = assay: Induction of p65 phosphorylation in human PMA-differentiated THP-1 cells at 100 nM incubated up to 120 mins by Western blotting analysis; format: functional, cell-based
THP-1 [9] = assay: Induction of TNFalpha production in human PMA-differentiated THP-1 cells supernatant incubated for 4 hrs by ELISA method; format: functional, cell-based
THP-1 [10] = assay: Induction of IL1beta production in human PMA-differentiated THP-1 cells supernatant incubated for 4 hrs by ELISA method; format: functional, cell-based
THP-1 [11] = assay: Induction of IL6 production in human PMA-differentiated THP-1 cells supernatant incubated for 4 hrs by ELISA method; format: functional, cell-based
THP-1 [12] = assay: Induction of p38 phosphorylation in human PMA-differentiated THP-1 cells at 100 nM incubated up to 120 mins by Western blotting analysis; format: functional, cell-based
THP-1 [13] = assay: Induction of JNK phosphorylation in human PMA-differentiated THP-1 cells at 100 nM incubated up to 120 mins by Western blotting analysis; format: functional, cell-based

Molecule `CCC[C@H]1CN(C(=O)c2ccc(C(=O)N3C[C@@H](C(=O)N[C@H]4C[C@@H]4c4ccccc4)[C@H](C(=O)N[C@H]4C[C@@H]4c4ccccc4)C3)cc2)C[C@@H]1C(=O)N[C@H]1C[C@@H]1c1ccccc1` has an EC50 (Toll-like receptor 2 [1]) of 87 nM.
`CCCCC1CN(C(=O)c2ccc(C(=O)N3CC(CCCC)[C@H](C(=O)N[C@H]4C[C@@H]4c4ccccc4)C3)cc2)CC1C(=O)N[C@H]1C[C@@H]1c1ccccc1` (stereo not given in full) showed an EC50 (Toll-like receptor 2 [1]) of 1500 nM.
With `CC(C)CC1CN(C(=O)c2ccc(C(=O)N3C[C@@H](C(=O)N[C@H]4C[C@@H]4c4ccccc4)[C@H](C(=O)N[C@H]4C[C@@H]4c4ccccc4)C3)cc2)CC1C(=O)N[C@H]1C[C@@H]1c1ccccc1` (stereo not given in full) the EC50 (Toll-like receptor 2 [1]) was 286 nM.
In the case of `O=C(N[C@H]1C[C@@H]1c1ccccc1)C1CN(C(=O)c2ccc(C(=O)N3C[C@@H](C(=O)N[C@H]4C[C@@H]4c4ccccc4)[C@H](C(=O)N[C@H]4C[C@@H]4c4ccccc4)C3)cc2)CC1CO` (stereo not given in full), the EC50 (Toll-like receptor 2 [1]) is reported as over 5000 nM.
With `CCC[C@@H]1CN(C(=O)c2ccc(C(=O)N3C[C@@H](C(=O)N[C@H]4C[C@@H]4c4ccccc4)[C@H](C(=O)N[C@H]4C[C@@H]4c4ccccc4)C3)cc2)C[C@H]1C(=O)N[C@H]1C[C@@H]1c1ccccc1` the EC50 (Toll-like receptor 2 [1]) was 177 nM.
`O=C(N[C@H]1C[C@@H]1c1ccccc1)[C@H]1CCN(C(=O)c2ccc(C(=O)N3C[C@@H](C(=O)N[C@H]4C[C@@H]4c4ccccc4)[C@H](C(=O)N[C@H]4C[C@@H]4c4ccccc4)C3)cc2)C1` showed an EC50 (Toll-like receptor 2 [1]) of over 5000 nM.
Molecule `CCCCC1CN(C(=O)c2ccc(C(=O)N3C[C@@H](C(=O)N[C@H]4C[C@@H]4c4ccccc4)[C@H](C(=O)N[C@H]4C[C@@H]4c4ccccc4)C3)cc2)CC1C(=O)N[C@H]1C[C@@H]1c1ccccc1` (stereo not given in full) has an EC50 (Toll-like receptor 2 [1]) of 37 nM.
For `CC(C)C1CN(C(=O)c2ccc(C(=O)N3C[C@@H](C(=O)N[C@H]4C[C@@H]4c4ccccc4)[C@H](C(=O)N[C@H]4C[C@@H]4c4ccccc4)C3)cc2)CC1C(=O)N[C@H]1C[C@@H]1c1ccccc1` (stereo not given in full), the EC50 (Toll-like receptor 2 [1]) was 702 nM.
For `CCC1CN(C(=O)c2ccc(C(=O)N3CC(CC)[C@H](C(=O)N[C@H]4C[C@@H]4c4ccccc4)C3)cc2)CC1C(=O)N[C@H]1C[C@@H]1c1ccccc1` (stereo not given in full), the EC50 (Toll-like receptor 2 [1]) was over 5000 nM.
In the case of `CCCC1CN(C(=O)c2ccc(C(=O)N3CC(CCC)[C@H](C(=O)N[C@H]4C[C@@H]4c4ccccc4)C3)cc2)CC1C(=O)N[C@H]1C[C@@H]1c1ccccc1` (stereo not given in full), the EC50 (Toll-like receptor 2 [1]) is reported as over 5000 nM.
With `CCC1CN(C(=O)c2ccc(C(=O)N3C[C@@H](C(=O)N[C@H]4C[C@@H]4c4ccccc4)[C@H](C(=O)N[C@H]4C[C@@H]4c4ccccc4)C3)cc2)CC1C(=O)N[C@H]1C[C@@H]1c1ccccc1` (stereo not given in full) the EC50 (Toll-like receptor 2 [1]) was 514 nM.
With `CCCC[C@H]1CN(C(=O)c2ccc(C(=O)N3C[C@@H](C(=O)N[C@H]4C[C@@H]4c4ccccc4)[C@H](C(=O)N[C@H]4C[C@@H]4c4ccccc4)C3)cc2)C[C@@H]1C(=O)N[C@H]1C[C@@H]1c1ccccc1` the EC50 (Toll-like receptor 2 [1]) was 35 nM, the Activity (THP-1 [2]) was “Non-Toxic” and the Activity [3] was “Non-Toxic”. For the same molecule, the Activity (Toll-like receptor 2 [4]) was “Active”, the Activity (Toll-like receptor 2 [5]) was “inactive” and the Activity (Toll-like receptor 2 [6]) was “inactive”. The Activity (THP-1 [7]) was “Tde”, the Activity (THP-1 [8]) was “Active” and the Activity (THP-1 [9]) was “Dose-Dependent Effect”. The Activity (THP-1 [10]) was “Dose-Dependent Effect”, the Activity (THP-1 [11]) was “Dose-Dependent Effect” and the Activity (THP-1 [12]) was “Active”. The Activity (THP-1 [13]) was “Active”.
In the case of `CCCC1CN(C(=O)c2ccc(C(=O)N3C[C@@H](C(=O)N[C@H]4C[C@@H]4c4ccccc4)[C@H](C(=O)N[C@H]4C[C@@H]4c4ccccc4)C3)cc2)CC1C(=O)N[C@H]1C[C@@H]1c1ccccc1` (stereo not given in full), the EC50 (Toll-like receptor 2 [1]) is reported as 107 nM.
`O=C(N[C@H]1C[C@@H]1c1ccccc1)C1CCN(C(=O)c2ccc(C(=O)N3C[C@@H](C(=O)N[C@H]4C[C@@H]4c4ccccc4)[C@H](C(=O)N[C@H]4C[C@@H]4c4ccccc4)C3)cc2)CC1` showed an EC50 (Toll-like receptor 2 [1]) of over 5000 nM.
Molecule `O=C(N[C@H]1C[C@@H]1c1ccccc1)C1CN(C(=O)c2ccc(C(=O)N3C[C@@H](C(=O)N[C@H]4C[C@@H]4c4ccccc4)[C@H](C(=O)N[C@H]4C[C@@H]4c4ccccc4)C3)cc2)CC1CF` (stereo not given in full) has an EC50 (Toll-like receptor 2 [1]) of over 5000 nM.
In the case of `O=C(N[C@H]1C[C@@H]1c1ccccc1)C1CN(C(=O)c2ccc(C(=O)N3C[C@@H](C(=O)N[C@H]4C[C@@H]4c4ccccc4)[C@H](C(=O)N[C@H]4C[C@@H]4c4ccccc4)C3)cc2)C1`, the EC50 (Toll-like receptor 2 [1]) is reported as over 5000 nM.
With `CC1CN(C(=O)c2ccc(C(=O)N3C[C@@H](C(=O)N[C@H]4C[C@@H]4c4ccccc4)[C@H](C(=O)N[C@H]4C[C@@H]4c4ccccc4)C3)cc2)CC1C(=O)N[C@H]1C[C@@H]1c1ccccc1` (stereo not given in full) the EC50 (Toll-like receptor 2 [1]) was 700 nM.
For `CCCC[C@@H]1CN(C(=O)c2ccc(C(=O)N3C[C@@H](C(=O)N[C@H]4C[C@@H]4c4ccccc4)[C@H](C(=O)N[C@H]4C[C@@H]4c4ccccc4)C3)cc2)C[C@H]1C(=O)N[C@H]1C[C@@H]1c1ccccc1`, the EC50 (Toll-like receptor 2 [1]) was 39 nM, the Activity (THP-1 [2]) was “Non-Toxic” and the Activity [3] was “Non-Toxic”. For the same molecule, the Activity (Toll-like receptor 2 [4]) was “Active”, the Activity (Toll-like receptor 2 [5]) was “inactive” and the Activity (Toll-like receptor 2 [6]) was “inactive”. For the same molecule, the Activity (THP-1 [7]) was “Tde”, the Activity (THP-1 [8]) was “Active” and the Activity (THP-1 [9]) was “Dose-Dependent Effect”. For the same molecule, the Activity (THP-1 [10]) was “Dose-Dependent Effect”, the Activity (THP-1 [11]) was “Dose-Dependent Effect” and the Activity (THP-1 [12]) was “Active”. For the same molecule, the Activity (THP-1 [13]) was “Active”.
For `CC(C)CC1CN(C(=O)c2ccc(C(=O)N3CC(CC(C)C)[C@H](C(=O)N[C@H]4C[C@@H]4c4ccccc4)C3)cc2)CC1C(=O)N[C@H]1C[C@@H]1c1ccccc1` (stereo not given in full), the EC50 (Toll-like receptor 2 [1]) was over 5000 nM.
Molecule `CC1CN(C(=O)c2ccc(C(=O)N3CC(C)[C@H](C(=O)N[C@H]4C[C@@H]4c4ccccc4)C3)cc2)CC1C(=O)N[C@H]1C[C@@H]1c1ccccc1` (stereo not given in full) has an EC50 (Toll-like receptor 2 [1]) of over 5000 nM.
`CC(C)C1CN(C(=O)c2ccc(C(=O)N3CC(C(C)C)[C@H](C(=O)N[C@H]4C[C@@H]4c4ccccc4)C3)cc2)CC1C(=O)N[C@H]1C[C@@H]1c1ccccc1` (stereo not given in full) showed an EC50 (Toll-like receptor 2 [1]) of over 5000 nM.
